{"source": "patent US9115213B2", "about": "“Phenotypic reversion of pancreatic carcinoma cells” (The Research Foundation of State University of New York, priority 2004, dated 2015)", "key": {"[1]": {"system": "insulin-activated wild-type ras-p21", "details": "cited from earlier work"}, "[2]": {"target": "T1, oncogenic ras-p21 (Val 12-p21) (Homo sapiens, UniProt P01112, G12V)", "T1 construct": "host or cells: microinjected into Xenopus laevis oocytes", "details": "cited from earlier work"}, "TUC-3 cells [3]": {"system": "TUC-3 cells", "details": "cited from earlier work"}, "BMRPA1 cells": {"system": "BMRPA1 cells", "details": "cited from earlier work"}, "[4]": {"system": "BMRPA1 pancreatic acinar cells", "test": "Peptide incubation with normal BMRPA1 cells", "description": "As described in several prior publications (16, 17, 20), we have developed two cell lines, one a normal contact-inhibited line of rat pancreatic acinar cells, called BMRPA1.430 (BMRPA1) cells and the other a pancreatic acinar carcinoma obtained by transfection of BMRPA1 cells with a plasmid containing an activated human K-ras oncogene [single base mutation at codon 12, valine substitution for the wild type glycine in the ras protein (K-ras^val12); a kind gift of Dr. M. Perucho (CIBR, La Jolla, Calif.)] and a neomycin resistance gene. […] In addition, they phenotypically maintain differentiated cell functions such as continued enzyme production and activation of zymogen secretion by secretagogue.\nApproximately 300,000 cells (either BMRPA1 or TUC-3) were plated in each of six wells and were allowed to adhere overnight. In one set of experiments, the initial media consisted of DMEM with 10% fetal bovine serum that contained no peptide. In another set of experiments, the initial media contained peptide. In the first set, media containing peptide was added after 24 hours; in both sets, after the first 24 hours, the media was changed every 24 hours and always contained peptide at a particular concentration. Cells were observed daily for three weeks for changes in morphology and growth characteristics. Peptides were present at concentrations of […]."}, "[5]": {"system": "ras-transformed pancreatic cancer (TUC-3) cells", "test": "Peptide incubation with TUC-3 cells (morphology, phenotypic reversion)", "format": "cell-based, rat"}, "TUC-3 cells [6]": {"system": "TUC-3 cells", "test": "Explantation of peptide-treated, morphologically revertant TUC-3 cells into nude mice", "format": "in vivo, Nu/Nu mice", "details": "for Tumor Nodule Size: 5 × 10^6 TUC-3 cells treated 2 weeks with peptide, posterior cervical fat pad, 5 nude mice, mean ± SD", "protocol": "To evaluate cells that appeared to be morphologically revertant to the normal phenotype, approximately 5×10^6 morphologically revertant TUC-3 cells treated for two weeks with 100 μg/ml of PNC-2 were injected subcutaneously into the posterior cervical fatpad of each of five Nu/Nu mice. Similarly, 5×10^6 untreated TUC-3 cells were explanted into another five Nu/Nu mice. Daily observations, over a 120 day period, were made on both sets of mice to determine if tumor nodules appeared at the site of injection."}, "Val 12-Ha-ras-p21": {"target": "T2, Val 12-Ha-ras-p21 (Homo sapiens, UniProt P01112, G12V)", "T2 construct": "host or cells: protein microinjected into Xenopus laevis oocytes", "test": "Co-immunoprecipitation of raf, MEK, JNK and MAPK with injected Val 12-Ha-ras-p21 in oocytes", "format": "cell-based, Xenopus laevis", "details": "peptide co-injected with Val 12-p21 into oocytes; anti-Ha-ras immunoprecipitate (FIG. 4A)", "protocol": "In these experiments, the Ha-ras form of Val 12-p21 was injected into oocytes (100 ug/ml, 50 nl per oocyte) either alone or together with inhibitory p21 peptide (residues 96-110 shown in this figure). […] The lysate was centrifuged for 15 min at 17000×g at 4° C., and the supernatant was either used directly. The lysates were then subjected to immunoprecipitation using an anti-Ha-ras antibody (CalBiochem). In this procedure, cell lysate was first pre-cleared by incubation with 50 ul of protein A beads for 1 hr at room temperature, followed by centrifugation. Anti-Ha-ras antibody was added to the lysate such that 0.1 ug antibody was added per 250 ug of pre-cleared lysate protein. A volume of 25 μl protein A agarose beads (Sigma) was then added to the incubation mixture, and the resulting mixture was incubated overnight at 4° C., after which the mixture was centrifuged, and the immunoprecipitate was washed three times with 0.5 ml of kinase buffer as described above. Immunoprecipitates were subjected to SDS-PAGE as described above in the preceding paragraph and blotted with anti-Ha-ras (1:2000 with 0.25% BSA), anti-raf (CalBiochem, San Diego, Calif.), diluted 1:2000 with 0.25% BSA, anti-JNK polyclonal antibody (1:2000), anti-MEK (CalBiochem) and anti-MAPK, diluted 1:2000 with 0.25% BSA. […]"}, "[7]": {"target": "T1, oncogenic ras-p21 (Val 12-p21)", "test": "Val 12-p21-induced oocyte maturation", "format": "cell-based, Xenopus laevis", "details": "peptide injected together with Val 12-p21"}, "[8]": {"target": "Val 12-p21-JNK interaction (Homo sapiens, UniProt P01112, G12V)", "details": "cited from earlier work"}}, "note": "“Also recorded” adds a separate entry of the source. Like-named read-outs stand apart in the source and are kept apart here. Where a SMILES comes first, the peptide text is derived from it."}
{"compound": "CO[C@@H]1[C@H](N(C)C(=O)c2ccccc2)C[C@H]2O[C@]1(C)n1c3ccccc3c3c4c(c5c6ccccc6n2c5c31)C(=O)NC4", "note": "[CGP 41 251]", "values": [{"measurement": "insulin-activated wild-type ras-p21-induced oocyte maturation / signaling", "setting": "[1]", "result": "much less effect"}, {"measurement": "oncogenic ras-p21-induced oocyte maturation / mitogenic signaling in oocytes", "setting": "[2]", "result": "blocks oncogenic ras-p21-induced oocyte maturation"}, {"measurement": "effect on TUC-3 cells", "setting": "TUC-3 cells [3]", "result": "induces both necrosis and phenotypic reversion of TUC-3 cells"}, {"measurement": "growth of revertant TUC-3 cells in soft agar", "setting": "TUC-3 cells [3]", "result": "fail to grow in soft agar"}, {"measurement": "cytotoxicity to BMRPA1 cells", "setting": "BMRPA1 cells", "result": "cytotoxic to BMRPA1 cells"}]}
{"compound": "CC[C@H](C)[C@H](NC(=O)[C@@H](NC(=O)[C@@H](NC(=O)[C@H](CCC(N)=O)NC(=O)[C@H](CCCCN)NC(=O)[C@H](CCCNC(=N)N)NC(=O)[C@H](Cc1ccc(O)cc1)NC(=O)[C@H](CO)NC(=O)[C@H](CC(=O)O)NC(=O)[C@H](CCC(=O)O)NC(=O)[C@@H](NC(=O)[C@@H](N)[C@@H](C)O)[C@@H](C)CC)C(C)C)C(C)C)C(=O)N[C@@H](CC(=O)O)C(=O)O", "note": "[PNC-7, TIEDSYRKQVVID] (H-TIEDSYRKQVVID-OH)", "values": [{"measurement": "cytotoxicity", "setting": "[4]", "result": "lack of cytotoxicity"}, {"measurement": "effect on growth of BMRPA1 cells", "setting": "[4]", "result": "no apparent effects"}]}
{"compound": "CC[C@H](C)[C@H](NC(=O)[C@H](CCCNC(=N)N)NC(=O)[C@H](CCCCN)NC(=O)CNC(=O)[C@@H](NC(=O)[C@H](CO)NC(=O)[C@H](Cc1ccccc1)NC(=O)[C@@H]1CCCN1C(=O)[C@@H](N)CCSC)[C@@H](C)O)C(=O)N[C@@H](CCSC)C(=O)N[C@@H](CC(C)C)C(=O)NCC(=O)N[C@@H](CCC(=O)O)C(=O)N[C@@H](CCCCN)C(=O)N[C@@H](CCCCN)C(=O)N[C@@H](Cc1c[nH]c2ccccc12)C(=O)N[C@@H](CCCCN)C(=O)N[C@@H](CCSC)C(=O)N[C@@H](CCCNC(=N)N)C(=O)N[C@@H](CCCNC(=N)N)C(=O)N[C@@H](CC(N)=O)C(=O)N[C@@H](CCC(N)=O)C(=O)N[C@@H](Cc1ccccc1)C(=O)N[C@@H](Cc1c[nH]c2ccccc12)C(=O)N[C@H](C(=O)N[C@@H](CCCCN)C(=O)N[C@H](C(=O)N[C@@H](CCC(N)=O)C(=O)N[C@@H](CCCNC(=N)N)C(=O)NCC(=O)O)C(C)C)C(C)C", "note": "[X13-leader, reference compound]", "values": [{"measurement": "effect on morphology of BMRPA1 cells", "setting": "[4]", "result": "no effect"}]}
{"compound": "N[C@@H](Cc1ccc(O)cn1)C(=O)O", "note": "[azatyrosine, reference compound]", "values": [{"measurement": "oncogenic ras-p21-induced oocyte maturation / mitogenic signaling in oocytes", "setting": "[2]", "result": "selectively blocks oncogenic ras-p21-induced oocyte maturation"}]}
{"compound": "PNC-2-leader: ras-p21 residues 96-110 (SEQ ID NO:1) with penetratin leader KKWKMRRNQFWVKVQRG attached to its carboxyl terminal end (YREQIKRVKDSDVPKKWKMRRNQFWVKVQRG; amino acid residues 96-110 of oncogenic ras-p21 protein)", "values": [{"measurement": "lowest concentration at which the morphological reversion of TUC-3 cells was achieved", "setting": "[5]", "result": 1, "unit": "ug/ml"}, {"measurement": "phenotypic reversion of TUC-3 cells", "setting": "[5]; 1 ug/ml, after two weeks", "result": "complete phenotypic reversion"}, {"measurement": "change in cell morphology of TUC-3 cells", "setting": "[5]; 100 μg/ml, 1 week (FIG. 2A)", "result": "the cells grow into contact-inhibited monolayers and show distinct cell boundaries"}, {"measurement": "phenotypic reversion of TUC-3 cells", "setting": "[5]; after one day of treatment (FIG. 2B: 100 μg/ml)", "result": "foci of acinar cellular differentiation appear"}, {"measurement": "tumor formation by morphologically revertant TUC-3 cells in nude mice", "setting": "TUC-3 cells [6]; cells treated two weeks with 100 ug/ml peptide, explanted subcutaneously", "result": "fail to form tumors up to two months after reversion"}]}
{"compound": "PNC-7-leader: ras-p21 residues 35-47 (TIEDSYRKQVVID, SEQ ID NO:2) with penetratin leader KKWKMRRNQFWVKVQRG attached to its carboxyl terminal end (TIEDSYRKQVVIDKKWKMRRNQFWVKVQRG; peptide amino acid residues 35-47 of oncogenic ras-p21 protein)", "values": [{"measurement": "phenotypic reversion of TUC-3 cells", "setting": "[5]; 100 and 200 ug/ml (FIG. 2C: two weeks)", "result": "phenotypic reversion of the cells"}, {"measurement": "concentration at which complete reversion of TUC-3 cells was achieved", "setting": "[5]; after two weeks of incubation", "result": "≥ 100", "unit": "µg/mL"}]}
{"compound": "YREQIKRVKDSDDVP (YREQIKRVKDSDVP; amino acid residues 96-110 of oncogenic ras-p21 protein) [PNC-2]", "values": [{"measurement": "phenotypic reversion of TUC-3 cells", "setting": "[5]", "result": 100, "unit": "%"}, {"measurement": "insulin-activated wild-type ras-p21-induced oocyte maturation / signaling", "setting": "[1]", "result": "little effect; also recorded: do not block insulin-activated wild type ras-induced maturation"}, {"measurement": "co-precipitation of raf, MEK, JNK and MAPK with Val 12-ras-p21", "setting": "Val 12-Ha-ras-p21", "result": "none of these proteins precipitated with Val 12-ras-p21 although there is still some binding to raf"}, {"measurement": "Tumor Nodule Size", "setting": "TUC-3 cells [6]; day 0", "result": 0.0, "unit": "mm"}, {"measurement": "Tumor Nodule Size", "setting": "TUC-3 cells [6]; day 7", "result": 0.0, "unit": "mm"}, {"measurement": "Tumor Nodule Size", "setting": "TUC-3 cells [6]; day 14", "result": 0.0, "unit": "mm"}, {"measurement": "Tumor Nodule Size", "setting": "TUC-3 cells [6]; day 21", "result": 0.0, "unit": "mm"}, {"measurement": "Tumor Nodule Size", "setting": "TUC-3 cells [6]; day 28", "result": 0.0, "unit": "mm"}, {"measurement": "Tumor Nodule Size", "setting": "TUC-3 cells [6]; day 42", "result": 0.0, "unit": "mm"}, {"measurement": "Tumor Nodule Size", "setting": "TUC-3 cells [6]; day 56", "result": 0.0, "unit": "mm"}, {"measurement": "oncogenic ras-p21-induced oocyte maturation / mitogenic signaling in oocytes", "setting": "[2]", "result": "block mitogenic signaling by oncogenic ras-p21 in oocytes; also recorded: block oncogenic ras-induced oocyte maturation"}, {"measurement": "cytotoxicity", "setting": "[4]", "result": "lack of cytotoxicity"}, {"measurement": "effect on growth of BMRPA1 cells", "setting": "[4]", "result": "no apparent effects"}, {"measurement": "Val 12-p21-induced oocyte maturation", "setting": "[7]", "result": "strongly inhibits maturation"}, {"measurement": "interferes with / blocks Val 12-p21-JNK interaction", "setting": "[8]", "result": "blocks oncogenic ras-p21-JNK interactions; also recorded: blocks the interaction of Val 12-p21 with JNK; also recorded: interferes with Val 12-p21-JNK interaction"}]}
